Reference: patent publication US20190231785A1, “PHOSPHODIESTERASE INHIBITOR TREATMENT” (Cyrano Therapeutics, Inc., priority 2012, published 2019)
Marks after values point to notes of the source that are not given here.

System: patients with hyposmia
Test: Olfactometry (DT, RT, ME, H; forced-choice, three-stimuli, stepwise-staircase, four odors), open trial of oral theophylline
Format: in vivo, human
From the text: Patients initially reported their sensory dysfunction as either loss of taste (e.g., flavor) and/or smell function. This subjective response was documented by objective psychophysical measurements of olfactory function administered to each patient by use of a forced-choice, three-stimuli, stepwise-staircase technique in a fixed, controlled design (1, 53). Efficacy of this technique and results of testing were previously documented in a double-blind clinical trial (53). Four odors were used; they were pyridine (dead-fish odor), nitrobenzene (bitter-almond odor), thiophene (petroleum-like odor) and amyl acetate (banana-oil odor). Detection thresholds (DT), recognition thresholds (RT) and magnitude estimation (ME) values for each odor were determined as previously described (1, 53). Thresholds were converted into bottle units (BU) as previously described (53) and results reported as M±SEM of correct responses for each odor in each treatment group; ME was reported in % and results calculated to obtain M±SEM for each treatment group for all correct responses using data for the four highest odor concentrations presented (from 10^−2M—an absolute odor concentration).
In addition, each patient graded the hedonic (H) value of each odor presented for these same odor concentrations (from 10^−2M—an absolute odor concentration using a −100-0-+100 scale). […] Results were obtained by calculating the arithmetical sum of each correct recognition response for each odor with respect to its pleasantness, unpleasantness or neutrality. Arithmetic M±SEM were obtained for each treatment group for each odor presented.
After determination of hyposmia, patients were treated in an open label, fixed design, controlled open trial. Patients were given an oral extended release theophylline in divided daily doses taken in the middle of breakfast and lunch. All patients were initially given 200 mg of theophylline; changes in this dose were made based upon subjective responses to therapy. If at a subsequent return visit, patients reported ≥5% subjective improvement in overall smell function, they continued on this same dose of theophylline and were reevaluated after four to six months of continued treatment. Results from any subsequent return from these improved patients were not included in any subsequent data report. All subsequent comparisons between treated and untreated patients were made only between those patients continuing in the study compared to their own measurements obtained in the untreated state. If patients reported <5% subjective improvement, their theophylline dose was increased by 200 mg daily and they were scheduled for retesting at the study site after two to four months at this new dosage. For patients that reported <5% improvement, this sequence continued until patients reached 800 mg of theophylline, at which time the study was considered completed.
Patients returned for reevaluation after two to four months of treatment. Measurements of blood serum theophylline were measured by a fluorescence polarization assay (Abbott, Chicago, Ill.). At this time, subjective changes in smell function were measured independently (compared to patient's memory of previous normal smell function monitored by use of the patients' daily measurements) using the scale from −100-0-+100 previously described (vs). After independently recording their subjective responses, smell function was measured for all four odors with DT, RT, ME and H determined without recourse to prior measurements.
Since data for all measurements from each patient group (local or distant) on each dose level were combined mean and SEM for each measurement (DT, RT, ME, H) of smell function for each treatment group were calculated on this basis. Differences in measurements between before treatment and each treatment level were calculated and significance of differences estimated using Student t tests (values p<0.05 considered significant). […]

[1] = Type I hyposmia, oral 200 mg, after treatment (57 patients), mean ± SEM
[2] = Type I hyposmia, oral 400 mg, after treatment (33 patients), mean ± SEM
[3] = Type I hyposmia, oral 600 mg, after treatment (51 patients), mean ± SEM
[4] = Type I hyposmia, oral 800 mg, after treatment (12 patients), mean ± SEM
[5] = Type II hyposmia, oral 200 mg, after treatment (138 patients)
[6] = Type II hyposmia, oral 400 mg, after treatment (85 patients)
[7] = Type II hyposmia, oral 600 mg, after treatment (105 patients)

Cn1c(=O)c2[nH]cnc2n(C)c1=O [theophylline]
detection threshold (DT), pyridine [1]: 9.5 ± 0.2 BU
hedonic value (H), amyl acetate [1]: 4 ± 2^a %
hedonic value (H), nitrobenzene [1]: 4 ± 2^a %
hedonic value (H), pyridine [1]: −8 ± 2^a %
hedonic value (H), thiophene [1]: −3 ± 2^a %
magnitude estimation (ME), amyl acetate [1]: 6 ± 2^a %
magnitude estimation (ME), nitrobenzene [1]: 5 ± 2^a %
magnitude estimation (ME), pyridine [1]: 11 ± 2^a %
magnitude estimation (ME), thiophene [1]: 6 ± 2^a %
recognition threshold (RT), pyridine [1]: 11.0 ± 0.2^a BU
detection threshold (DT), nitrobenzene [2]: 9.8 ± 0.5^a BU
detection threshold (DT), pyridine [2]: 8.8 ± 0.5 BU
detection threshold (DT), thiophene [2]: 9.8 ± 0.5^a BU
hedonic value (H), amyl acetate [2]: 5 ± 3^a %
hedonic value (H), nitrobenzene [2]: 3 ± 3^a %
hedonic value (H), pyridine [2]: −7 ± 3^a %
hedonic value (H), thiophene [2]: −5 ± 2^a %
magnitude estimation (ME), amyl acetate [2]: 7 ± 3^a %
magnitude estimation (ME), nitrobenzene [2]: 8 ± 3^a %
magnitude estimation (ME), pyridine [2]: 12 ± 3^a %
magnitude estimation (ME), thiophene [2]: 7 ± 2^a %
recognition threshold (RT), pyridine [2]: 10.6 ± 0.4 BU
detection threshold (DT), nitrobenzene [3]: 9.9 ± 0.4^c BU
detection threshold (DT), pyridine [3]: 8.9 ± 0.3^b BU
detection threshold (DT), thiophene [3]: 9.4 ± 0.4^a BU
hedonic value (H), amyl acetate [3]: −0.4 ± 1%
hedonic value (H), nitrobenzene [3]: 2 ± 2%
hedonic value (H), pyridine [3]: −8 ± 2^a %
hedonic value (H), thiophene [3]: −3 ± 2^a %
magnitude estimation (ME), amyl acetate [3]: 5 ± 2^a %
magnitude estimation (ME), nitrobenzene [3]: 6 ± 2^a %
magnitude estimation (ME), pyridine [3]: 11 ± 3^a %
magnitude estimation (ME), thiophene [3]: 7 ± 2^a %
detection threshold (DT), thiophene [4]: 10.0 ± 0.7 BU
hedonic value (H), amyl acetate [4]: −1 ± 4%
hedonic value (H), nitrobenzene [4]: 2 ± 2^a %
hedonic value (H), pyridine [4]: −11 ± 5^a %
hedonic value (H), thiophene [4]: −4 ± 2^a %
magnitude estimation (ME), amyl acetate [4]: 5 ± 3^a %
magnitude estimation (ME), nitrobenzene [4]: 4 ± 3^a %
magnitude estimation (ME), pyridine [4]: 10 ± 4^a %
magnitude estimation (ME), thiophene [4]: 4 ± 2^a %
detection threshold (DT), amyl acetate [5]: 7.0 ± 0.3 BU
detection threshold (DT), nitrobenzene [5]: 6.9 ± 0.3^a BU
detection threshold (DT), pyridine [5]: 6.9 ± 0.2 BU
detection threshold (DT), thiophene [5]: 6.5 ± 0.3 BU
hedonic value (H), amyl acetate [5]: 3 ± 2%
hedonic value (H), nitrobenzene [5]: 7 ± 2%
hedonic value (H), pyridine [5]: −28 ± 2%
hedonic value (H), thiophene [5]: −19 ± 2%
magnitude estimation (ME), amyl acetate [5]: 19 ± 2%
magnitude estimation (ME), nitrobenzene [5]: 22 ± 2%
magnitude estimation (ME), pyridine [5]: 35 ± 2%
magnitude estimation (ME), thiophene [5]: 27 ± 2%
recognition threshold (RT), amyl acetate [5]: 9.3 ± 0.2 BU
recognition threshold (RT), nitrobenzene [5]: 8.8 ± 0.3 BU
recognition threshold (RT), pyridine [5]: 8.2 ± 0.2^a BU
recognition threshold (RT), thiophene [5]: 8.2 ± 0.3^a BU
detection threshold (DT), amyl acetate [6]: 6.1 ± 0.4^a BU
detection threshold (DT), nitrobenzene [6]: 6.3 ± 0.4^a BU
detection threshold (DT), pyridine [6]: 6.3 ± 0.3^a BU
detection threshold (DT), thiophene [6]: 5.7 ± 0.4 BU
hedonic value (H), amyl acetate [6]: 0.3 ± 2.8%
hedonic value (H), nitrobenzene [6]: 11 ± 3%
hedonic value (H), pyridine [6]: −34 ± 3%
hedonic value (H), thiophene [6]: −23 ± 3%
magnitude estimation (ME), amyl acetate [6]: 21 ± 3%
magnitude estimation (ME), nitrobenzene [6]: 27 ± 3^a %
magnitude estimation (ME), pyridine [6]: 41 ± 3^a %
magnitude estimation (ME), thiophene [6]: 31 ± 3%
recognition threshold (RT), amyl acetate [6]: 8.8 ± 0.4^a BU
recognition threshold (RT), nitrobenzene [6]: 8.2 ± 0.4^a BU
recognition threshold (RT), pyridine [6]: 7.7 ± 0.3^a BU
recognition threshold (RT), thiophene [6]: 7.6 ± 0.4^a BU
detection threshold (DT), amyl acetate [7]: 6.8 ± 0.3^a BU
detection threshold (DT), nitrobenzene [7]: 6.8 ± 0.3^a BU
detection threshold (DT), pyridine [7]: 6.7 ± 0.3^a BU
detection threshold (DT), thiophene [7]: 6.1 ± 0.3^a BU
hedonic value (H), amyl acetate [7]: 7 ± 2%
hedonic value (H), nitrobenzene [7]: 11 ± 2%
hedonic value (H), pyridine [7]: −25 ± 3%
hedonic value (H), thiophene [7]: −20 ± 2%
magnitude estimation (ME), amyl acetate [7]: 19 ± 2%
magnitude estimation (ME), nitrobenzene [7]: 24 ± 2%
magnitude estimation (ME), pyridine [7]: 33 ± 2%
magnitude estimation (ME), thiophene [7]: 27 ± 2%
recognition threshold (RT), amyl acetate [7]: 8.9 ± 0.3^a BU
recognition threshold (RT), nitrobenzene [7]: 8.4 ± 0.3 BU
recognition threshold (RT), pyridine [7]: 8.9 ± 0.3 BU
